Test results as given in ChEMBL document CHEMBL5465560, “Selectivity Literature for EUbOPEN Chemogenomic Library” (2024).
One block for each compound: values may come before it.

Tests used:
[1] = biological target: Proto-oncogene tyrosine-protein kinase Src (Homo sapiens, UniProt P12931); conditions: at 10 µM
[2] = biological target: TGF-beta receptor type-2 (Homo sapiens) (UniProt P37173); assay: Selectivity interaction (Ambit KINOMEscan and KiNATiv profiling in Jurkat cells) EUB0000090b TGFBR2; type: cell-based; conditions: at 1 µM
[3] = biological target: T1, Interleukin-1 receptor-associated kinase 4 (Homo sapiens, UniProt Q9NWZ3); assay: Selectivity interaction (Enzymatic assay) EUB0001550a IRAK4
T1 sequence (Q9NWZ3 whole entry): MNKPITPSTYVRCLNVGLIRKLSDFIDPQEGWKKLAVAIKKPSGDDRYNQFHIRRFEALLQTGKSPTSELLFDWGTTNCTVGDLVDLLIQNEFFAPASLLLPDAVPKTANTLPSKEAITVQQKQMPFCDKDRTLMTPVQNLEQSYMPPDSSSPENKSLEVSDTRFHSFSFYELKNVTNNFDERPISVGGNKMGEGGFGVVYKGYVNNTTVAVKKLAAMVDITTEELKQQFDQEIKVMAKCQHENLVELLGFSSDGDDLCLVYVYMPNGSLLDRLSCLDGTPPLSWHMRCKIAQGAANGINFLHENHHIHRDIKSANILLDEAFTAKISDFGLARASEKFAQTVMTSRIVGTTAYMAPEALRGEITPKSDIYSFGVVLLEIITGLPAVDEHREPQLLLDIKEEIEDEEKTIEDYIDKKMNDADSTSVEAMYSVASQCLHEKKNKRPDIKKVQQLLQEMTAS

[4] = biological target: T2, cGMP-dependent protein kinase 1 (Homo sapiens) (UniProt Q13976); conditions: at 10 µM
T2 sequence (whole entry): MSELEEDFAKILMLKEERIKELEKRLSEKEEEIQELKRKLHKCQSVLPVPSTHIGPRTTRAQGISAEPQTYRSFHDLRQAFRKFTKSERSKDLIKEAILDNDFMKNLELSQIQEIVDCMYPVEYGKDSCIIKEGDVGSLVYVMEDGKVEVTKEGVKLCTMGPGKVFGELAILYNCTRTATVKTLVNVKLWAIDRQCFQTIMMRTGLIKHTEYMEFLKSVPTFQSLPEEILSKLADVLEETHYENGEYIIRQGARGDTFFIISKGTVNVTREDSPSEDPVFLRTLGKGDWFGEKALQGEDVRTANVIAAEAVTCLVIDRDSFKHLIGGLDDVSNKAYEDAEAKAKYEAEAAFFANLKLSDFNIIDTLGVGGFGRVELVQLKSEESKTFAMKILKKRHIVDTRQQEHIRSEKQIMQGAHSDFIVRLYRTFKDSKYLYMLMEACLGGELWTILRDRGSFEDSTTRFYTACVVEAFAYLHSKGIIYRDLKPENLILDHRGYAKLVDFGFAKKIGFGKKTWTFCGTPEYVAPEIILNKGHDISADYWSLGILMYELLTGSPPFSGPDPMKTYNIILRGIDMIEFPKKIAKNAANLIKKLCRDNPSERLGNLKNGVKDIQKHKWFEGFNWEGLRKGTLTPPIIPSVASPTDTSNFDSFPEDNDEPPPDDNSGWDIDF

[5] = biological target: Serine/threonine-protein kinase pim-2 (Homo sapiens, UniProt Q9P1W9); assay: Selectivity interaction (KinomeScan (DiscoverX)) EUB0000595a PIM2; conditions: at 10 µM
[6] = biological target: CDK1/Cyclin A (Homo sapiens) (UniProt P06493+P20248); assay: (§1) Selectivity interaction (ProQinase) EUB0000171b CDK1; type: protein-complex assay
[7] = biological target: CDK1/Cyclin E (Homo sapiens) (UniProt P06493+P24864); assay: as §1; type: protein-complex assay
[8] = biological target: Cyclin-dependent kinase 1/cyclin B1 (Homo sapiens) (UniProt P06493+P14635); assay: as §1; type: protein-complex assay
[9] = biological target: Serine/threonine-protein kinase N2 (Homo sapiens, UniProt Q16513); assay: Selectivity interaction (ProQinase) EUB0000171b PKN2
[10] = biological target: T3, Tyrosine-protein kinase receptor TYRO3 (Homo sapiens) (UniProt Q06418); assay: Selectivity interaction (KinomeScan (DiscoverX)) EUB0000045b TYRO3
T3 sequence (whole entry): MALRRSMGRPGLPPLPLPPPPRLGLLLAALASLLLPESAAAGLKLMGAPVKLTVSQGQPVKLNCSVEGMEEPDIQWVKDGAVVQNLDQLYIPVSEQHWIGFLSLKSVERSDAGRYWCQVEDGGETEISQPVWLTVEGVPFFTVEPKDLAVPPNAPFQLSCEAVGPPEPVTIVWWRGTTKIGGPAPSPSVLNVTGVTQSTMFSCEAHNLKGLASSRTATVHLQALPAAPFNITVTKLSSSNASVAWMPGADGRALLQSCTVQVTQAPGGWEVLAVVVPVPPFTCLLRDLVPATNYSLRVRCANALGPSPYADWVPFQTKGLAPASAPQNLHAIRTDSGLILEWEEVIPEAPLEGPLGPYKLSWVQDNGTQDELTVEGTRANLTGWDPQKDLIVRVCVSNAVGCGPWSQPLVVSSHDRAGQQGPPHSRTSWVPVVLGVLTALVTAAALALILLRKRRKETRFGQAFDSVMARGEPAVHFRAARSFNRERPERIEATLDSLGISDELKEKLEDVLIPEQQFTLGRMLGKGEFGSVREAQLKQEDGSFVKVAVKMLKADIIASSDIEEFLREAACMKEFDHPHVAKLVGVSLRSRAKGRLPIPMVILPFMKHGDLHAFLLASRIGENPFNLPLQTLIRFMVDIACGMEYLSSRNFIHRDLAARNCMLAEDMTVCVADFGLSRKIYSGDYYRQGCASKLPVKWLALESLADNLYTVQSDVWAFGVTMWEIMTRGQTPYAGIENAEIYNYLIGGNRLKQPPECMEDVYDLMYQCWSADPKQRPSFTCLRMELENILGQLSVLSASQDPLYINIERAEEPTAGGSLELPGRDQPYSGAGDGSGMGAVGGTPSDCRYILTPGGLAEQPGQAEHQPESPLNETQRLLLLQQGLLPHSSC

[11] = biological target: Dual specificity protein kinase CLK2 (Homo sapiens, UniProt P49760); assay: Selectivity interaction (SelectScreen profiling (Invitrogen)) EUB0000607a CLK2; conditions: at 2 µM
[12] = biological target: Tyrosine-protein kinase Fer (Homo sapiens) (UniProt P16591); assay: Selectivity interaction (SelectScreen profiling (Invitrogen)) EUB0000607a FER; conditions: at 2 µM

Chain of Serine/threonine-protein kinase N2 (Q16513 whole entry, looked up): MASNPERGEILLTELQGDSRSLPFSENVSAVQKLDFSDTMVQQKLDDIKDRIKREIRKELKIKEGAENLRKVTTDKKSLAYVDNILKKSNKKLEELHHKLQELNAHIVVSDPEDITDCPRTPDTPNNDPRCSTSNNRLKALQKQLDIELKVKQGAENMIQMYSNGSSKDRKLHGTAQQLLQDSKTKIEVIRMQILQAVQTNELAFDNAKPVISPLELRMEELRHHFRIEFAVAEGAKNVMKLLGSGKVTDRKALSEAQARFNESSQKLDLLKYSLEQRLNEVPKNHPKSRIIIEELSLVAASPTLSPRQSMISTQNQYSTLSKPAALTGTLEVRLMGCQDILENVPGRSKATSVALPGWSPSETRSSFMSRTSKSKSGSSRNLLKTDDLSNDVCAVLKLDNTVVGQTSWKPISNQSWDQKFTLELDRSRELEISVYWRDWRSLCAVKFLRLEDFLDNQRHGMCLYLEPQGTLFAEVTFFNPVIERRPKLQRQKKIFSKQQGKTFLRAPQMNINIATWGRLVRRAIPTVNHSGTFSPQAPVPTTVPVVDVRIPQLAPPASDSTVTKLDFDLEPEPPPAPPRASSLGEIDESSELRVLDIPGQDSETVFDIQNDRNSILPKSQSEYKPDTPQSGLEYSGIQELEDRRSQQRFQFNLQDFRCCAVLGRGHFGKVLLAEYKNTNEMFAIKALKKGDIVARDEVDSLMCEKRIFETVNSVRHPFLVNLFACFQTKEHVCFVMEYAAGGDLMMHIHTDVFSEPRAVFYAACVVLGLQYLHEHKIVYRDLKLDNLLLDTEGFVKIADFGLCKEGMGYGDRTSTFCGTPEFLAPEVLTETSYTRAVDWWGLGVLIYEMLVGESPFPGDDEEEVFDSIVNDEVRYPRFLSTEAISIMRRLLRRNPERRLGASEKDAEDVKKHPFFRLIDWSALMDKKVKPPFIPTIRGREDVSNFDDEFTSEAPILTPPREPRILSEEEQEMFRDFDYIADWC
Chain of CDK1/Cyclin E (Homo sapiens) (P06493 whole entry, looked up): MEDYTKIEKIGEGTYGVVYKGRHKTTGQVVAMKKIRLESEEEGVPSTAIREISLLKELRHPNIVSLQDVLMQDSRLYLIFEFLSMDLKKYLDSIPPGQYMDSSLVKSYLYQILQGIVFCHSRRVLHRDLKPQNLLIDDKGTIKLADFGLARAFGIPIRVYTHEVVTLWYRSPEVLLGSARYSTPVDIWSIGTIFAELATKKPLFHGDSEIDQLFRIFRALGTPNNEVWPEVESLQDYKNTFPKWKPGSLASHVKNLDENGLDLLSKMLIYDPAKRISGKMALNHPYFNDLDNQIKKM
Chain of CDK1/Cyclin E (Homo sapiens) (P24864 whole entry, looked up): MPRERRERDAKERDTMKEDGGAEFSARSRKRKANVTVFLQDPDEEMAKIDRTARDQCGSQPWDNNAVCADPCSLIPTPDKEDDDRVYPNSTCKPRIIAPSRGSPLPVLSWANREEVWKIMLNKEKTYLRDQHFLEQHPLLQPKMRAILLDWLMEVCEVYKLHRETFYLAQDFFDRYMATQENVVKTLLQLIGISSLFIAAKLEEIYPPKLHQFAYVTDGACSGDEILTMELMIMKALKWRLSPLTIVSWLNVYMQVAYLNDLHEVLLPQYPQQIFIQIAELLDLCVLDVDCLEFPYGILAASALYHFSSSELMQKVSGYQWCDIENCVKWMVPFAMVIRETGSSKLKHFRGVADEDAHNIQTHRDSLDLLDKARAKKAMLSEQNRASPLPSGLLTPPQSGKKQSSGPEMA
Chain of CDK1/Cyclin A (Homo sapiens) (P06493 whole entry, looked up): as the sequence (P06493 whole entry, looked up) above
Chain of CDK1/Cyclin A (Homo sapiens) (P20248 whole entry, looked up): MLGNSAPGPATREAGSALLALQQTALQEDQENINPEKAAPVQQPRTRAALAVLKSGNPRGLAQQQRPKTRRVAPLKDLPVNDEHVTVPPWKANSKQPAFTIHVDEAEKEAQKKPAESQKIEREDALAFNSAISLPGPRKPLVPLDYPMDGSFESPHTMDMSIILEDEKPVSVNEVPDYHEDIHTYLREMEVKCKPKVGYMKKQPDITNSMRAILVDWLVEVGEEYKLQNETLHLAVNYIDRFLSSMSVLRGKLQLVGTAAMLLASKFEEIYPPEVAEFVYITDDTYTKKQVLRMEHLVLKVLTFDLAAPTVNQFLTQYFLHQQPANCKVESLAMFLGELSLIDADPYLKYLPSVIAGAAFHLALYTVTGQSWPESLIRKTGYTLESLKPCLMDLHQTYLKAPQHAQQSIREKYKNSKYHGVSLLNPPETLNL
Chain of Cyclin-dependent kinase 1/cyclin B1 (Homo sapiens) (P06493 whole entry, looked up): as the sequence (P06493 whole entry, looked up) above
Chain of Cyclin-dependent kinase 1/cyclin B1 (Homo sapiens) (P14635 whole entry, looked up): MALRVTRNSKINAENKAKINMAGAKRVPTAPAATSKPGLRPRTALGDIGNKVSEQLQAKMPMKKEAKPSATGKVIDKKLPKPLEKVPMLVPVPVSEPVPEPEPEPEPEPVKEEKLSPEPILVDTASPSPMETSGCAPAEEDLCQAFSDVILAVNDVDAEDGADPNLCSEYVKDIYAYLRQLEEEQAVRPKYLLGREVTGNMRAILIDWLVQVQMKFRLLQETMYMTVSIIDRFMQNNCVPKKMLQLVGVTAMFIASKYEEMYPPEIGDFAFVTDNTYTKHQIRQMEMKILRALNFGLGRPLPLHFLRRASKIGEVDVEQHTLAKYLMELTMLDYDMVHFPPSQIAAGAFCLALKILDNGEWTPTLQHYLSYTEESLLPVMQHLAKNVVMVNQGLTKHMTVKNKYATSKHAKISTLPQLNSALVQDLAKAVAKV
Chain of Serine/threonine-protein kinase pim-2 (Q9P1W9 whole entry, looked up): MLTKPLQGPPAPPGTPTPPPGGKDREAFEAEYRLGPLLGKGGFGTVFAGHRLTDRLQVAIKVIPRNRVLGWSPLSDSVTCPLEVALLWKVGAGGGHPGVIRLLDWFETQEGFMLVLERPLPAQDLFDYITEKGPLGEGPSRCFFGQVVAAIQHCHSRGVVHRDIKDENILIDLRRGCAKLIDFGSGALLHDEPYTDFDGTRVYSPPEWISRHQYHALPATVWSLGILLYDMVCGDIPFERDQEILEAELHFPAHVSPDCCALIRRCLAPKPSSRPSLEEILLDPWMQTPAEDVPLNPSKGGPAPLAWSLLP
Chain of TGF-beta receptor type-2 (Homo sapiens) (P37173 whole entry): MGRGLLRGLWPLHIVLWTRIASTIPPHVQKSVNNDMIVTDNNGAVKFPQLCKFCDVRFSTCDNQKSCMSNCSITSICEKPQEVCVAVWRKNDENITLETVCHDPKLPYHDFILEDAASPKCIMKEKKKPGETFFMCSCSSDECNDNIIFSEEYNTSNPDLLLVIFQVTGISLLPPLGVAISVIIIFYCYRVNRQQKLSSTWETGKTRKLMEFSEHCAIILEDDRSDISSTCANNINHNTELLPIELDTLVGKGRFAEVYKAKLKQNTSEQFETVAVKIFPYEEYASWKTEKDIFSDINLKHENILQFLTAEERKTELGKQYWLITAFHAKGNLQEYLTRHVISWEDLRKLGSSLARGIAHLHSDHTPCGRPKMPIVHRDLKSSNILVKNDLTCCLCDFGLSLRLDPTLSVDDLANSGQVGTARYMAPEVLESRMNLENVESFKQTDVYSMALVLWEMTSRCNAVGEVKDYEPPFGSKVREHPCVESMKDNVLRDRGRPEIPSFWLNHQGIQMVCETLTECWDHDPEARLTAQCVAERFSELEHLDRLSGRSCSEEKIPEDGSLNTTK
Chain of Dual specificity protein kinase CLK2 (P49760 whole entry, looked up): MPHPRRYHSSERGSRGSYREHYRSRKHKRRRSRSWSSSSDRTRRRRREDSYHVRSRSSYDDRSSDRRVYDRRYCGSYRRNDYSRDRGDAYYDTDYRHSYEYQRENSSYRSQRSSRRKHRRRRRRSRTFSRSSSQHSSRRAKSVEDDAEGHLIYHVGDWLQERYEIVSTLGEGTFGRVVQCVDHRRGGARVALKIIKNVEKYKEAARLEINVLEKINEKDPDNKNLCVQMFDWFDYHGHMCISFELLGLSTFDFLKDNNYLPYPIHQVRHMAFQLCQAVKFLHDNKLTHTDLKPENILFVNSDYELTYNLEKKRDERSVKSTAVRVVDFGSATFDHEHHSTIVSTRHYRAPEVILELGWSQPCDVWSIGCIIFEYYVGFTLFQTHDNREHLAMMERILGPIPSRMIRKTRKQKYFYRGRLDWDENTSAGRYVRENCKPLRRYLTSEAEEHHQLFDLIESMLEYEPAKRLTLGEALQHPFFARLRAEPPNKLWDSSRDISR

Compound: Cc1cc([C@@H](C)Nc2ccccc2C(=O)O)c2nc(N3CCOCC3)cc(=O)n2c1 [AZD-6482]
% of control [1]: 100%

Compound: CN(C)C/C=C/C(=O)Nc1ccc(C(=O)N2CCCC(Nc3ncc(Cl)c(-c4c[nH]c5ccccc45)n3)C2)cc1 (configuration not stated)
% of control [2]: 87%

IC50 [3]: 4.5 µM
Compound: CN(C)CC#Cc1ccc2[nH]c3c(c2c1)-c1nc(N)ncc1CCC3

% of control [4]: 100%
Compound: CCN(CC)CCCCNc1ncc2cc(-c3cc(OC)cc(OC)c3)c(NC(=O)NC(C)(C)C)nc2n1

Compound: COCC(=O)NC/C=C/c1ccc2ncnc(Nc3ccc(Oc4ccc(C)nc4)c(C)c3)c2c1 [CP-724714]
% of control [5]: 100%

% of control ([6]; at 1 µM): 89%
% of control ([6]; at 5 µM): 79%
% of control ([7]; at 1 µM): 90%
% of control ([7]; at 5 µM): 74%
% of control ([8]; at 1 µM): 94%
% of control ([8]; at 5 µM): 77%
% of control ([9]; at 1 µM): 90%
% of control ([9]; at 5 µM): 76%
Compound: C=CC(=O)Nc1cccc(C(=O)Nc2ccc(Nc3cc(-c4[nH]c(SC)nc4C)ccn3)cc2)c1

Compound: C=CC(=O)Nc1cc(-n2c(=O)ccc3cnc4ccc(-c5ccc(NS(C)(=O)=O)cc5)cc4c32)ccc1C
% of control ([10]; at 1 µM): 100%
% of control ([10]; at 10 µM): 100%

Compound: CNC(=O)Nc1ccc(-c2nc(N3CC4CCC(C3)O4)c3cnn(C4CCC5(CC4)OCCO5)c3n2)cc1
% of inhibition [11]: 0%
% of inhibition [12]: 5%
